Results taken from article PMC12483982, “MTS1 regulates rice plant architecture by mediating phosphoinositide metabolism” (Plant Biotechnology Journal, 2025).

Target: T1, NGR5 (GST-NGR5) (Oryza sativa, UniProt X5HYT8)
T1 construct: gene SMOS1; recombinant GST fusion from E. coli Rosetta (DE3), glutathione sepharose, GST tag kept; NT-647 NHS labelled
T1 sequence (X5HYT8 1-425): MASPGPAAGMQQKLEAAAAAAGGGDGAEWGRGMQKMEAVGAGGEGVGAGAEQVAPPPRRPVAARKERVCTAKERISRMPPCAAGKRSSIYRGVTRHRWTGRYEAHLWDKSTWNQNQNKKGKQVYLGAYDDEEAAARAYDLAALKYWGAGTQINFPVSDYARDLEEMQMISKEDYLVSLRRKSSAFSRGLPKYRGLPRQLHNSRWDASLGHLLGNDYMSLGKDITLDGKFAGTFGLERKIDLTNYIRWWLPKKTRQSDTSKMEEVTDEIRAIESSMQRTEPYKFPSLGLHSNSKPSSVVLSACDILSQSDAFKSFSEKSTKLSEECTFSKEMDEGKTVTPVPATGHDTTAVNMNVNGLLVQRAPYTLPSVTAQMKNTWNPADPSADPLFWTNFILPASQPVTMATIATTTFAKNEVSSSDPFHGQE
Assay: microscale thermophoresis (NT.[…])
Format: binding
Settings: NT-647 NHS-labelled GST-NGR5 10 nM; phosphate buffer with 0.005% Tween-20; 30 min; also seen in lipid-protein overlay

Kd: 1.14 ± 0.6 µM
Substance: phosphatidylinositol 4-phosphate [PI4P]
